Source: PubChem BioAssay AID248 (DTP/NCI, 2004)
Where “and” joins values, the source holds several entries; their conditions need not be identical. Equal values may be shown once. Toxic doses and inconclusive results are not listed. No stated cut-off is given here; in the data, active means T/C of 150% or more; inactive means T/C below 125%.

Tested on: L1210 leukemia ip in BDF1 mice, survival T/C
Experiment: NCI In Vivo Anticancer Drug Screen. Data for tumor model L1210 Leukemia (intraperitoneal) in B6D2F1 (BDF1) mice
Conditions: endpoint: mean survival time, higher = longer survival
Outline: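 Tumor cells were implanted, animals were treated, and survival was followed. The result divides the treated measurement by the vehicle-control measurement.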

[1] = dose: 12.5 mg/kg/injection, schedule: Q04DX003 (ip), vehicle: saline
[2] = dose: 100.0 mg/kg/injection, schedule: Q01DX009 (ip), vehicle: saline with Tween-80
[3] = dose: 100.0 mg/kg/injection, schedule: Q04DX003 (ip), vehicle: saline
[4] = dose: 200.0 mg/kg/injection, schedule: Q01DX009 (ip), vehicle: saline with Tween-80
[5] = dose: 200.0 mg/kg/injection, schedule: Q04DX003 (ip), vehicle: saline
[6] = dose: 400.0 mg/kg/injection, schedule: Q01DX009 (ip), vehicle: saline with Tween-80
[7] = dose: 400.0 mg/kg/injection, schedule: Q04DX003 (ip), vehicle: saline
[8] = dose: 75.0 mg/kg/injection, schedule: Q01DX001 (ip), vehicle: saline
[9] = dose: 100.0 mg/kg/injection, schedule: Q01DX009 (ip), vehicle: Klucel (hydroxypropylcellulose) (HPC)
[10] = dose: 200.0 mg/kg/injection, schedule: Q01DX009 (ip), vehicle: Klucel (hydroxypropylcellulose) (HPC)
[11] = dose: 400.0 mg/kg/injection, schedule: Q01DX009 (ip), vehicle: Klucel (hydroxypropylcellulose) (HPC)
[12] = dose: 25.0 mg/kg/injection, schedule: Q01DX009 (ip), vehicle: saline
[13] = dose: 25.0 mg/kg/injection, schedule: Q04DX003 (ip), vehicle: saline
[14] = dose: 50.0 mg/kg/injection, schedule: Q01DX009 (ip), vehicle: saline
[15] = dose: 100.0 mg/kg/injection, schedule: Q01DX009 (ip), vehicle: saline
[16] = dose: 100.0 mg/kg/injection, schedule: Q01DX001 (ip), vehicle: saline
[17] = dose: 200.0 mg/kg/injection, schedule: Q01DX001 (ip), vehicle: saline
[18] = dose: 400.0 mg/kg/injection, schedule: Q01DX001 (ip), vehicle: saline
[19] = dose: 100.0 mg/kg/injection, schedule: Q01DX001 (ip), vehicle: acetone
[20] = dose: 100.0 mg/kg/injection, schedule: Q01DX001 (ip), vehicle: Klucel (hydroxypropylcellulose) (HPC)
[21] = dose: 100.0 mg/kg/injection, schedule: Q04DX003 (ip), vehicle: Klucel (hydroxypropylcellulose) (HPC)
[22] = dose: 200.0 mg/kg/injection, schedule: Q04DX003 (ip), vehicle: Klucel (hydroxypropylcellulose) (HPC)
[23] = dose: 400.0 mg/kg/injection, schedule: Q04DX003 (ip), vehicle: Klucel (hydroxypropylcellulose) (HPC)

Measured: T/C

C=CC[P+](CCCC)(CCCC)CCCC
inactive: dose: 6.25 mg/kg/injection, schedule: Q04DX003 (ip), vehicle: saline 102 % of control | [1] 91 % of control

CCN(c1c(C)cc(C)c(N(CC(=O)O)S(=O)(=O)c2ccccc2)c1C)S(=O)(=O)c1ccccc1
inactive: [2] 101 % of control | [3] 94 % of control | [4] 97 % of control | [5] 100 % of control | [6] 95 % of control | [7] 103 % of control

CN(C(=O)N(CCCl)N=O)C1CCCCC1
inactive: [8] 109 % of control | dose: 150.0 mg/kg/injection, schedule: Q01DX001 (ip), vehicle: saline 93 % of control

CC(=O)OC(C[N+](=O)[O-])C(Cl)(Cl)Cl (stereo unspecified)
inactive: dose: 6.25 mg/kg/injection, schedule: Q01DX009 (ip), vehicle: saline sonified 107 % of control | dose: 12.5 mg/kg/injection, schedule: Q01DX009 (ip), vehicle: saline sonified 107 % of control | dose: 12.5 mg/kg/injection, schedule: Q04DX003 (ip), vehicle: Klucel (hydroxypropylcellulose) (HPC) 97 % of control | dose: 25.0 mg/kg/injection, schedule: Q01DX009 (ip), vehicle: saline sonified 106 % of control | dose: 25.0 mg/kg/injection, schedule: Q04DX003 (ip), vehicle: Klucel (hydroxypropylcellulose) (HPC) 103 % of control

O=[N+]([O-])c1ccccc1CC1c2ccccc2-c2ccccc21
inactive: [3] 96 % of control | [5] 94 % of control | [7] 93 % of control

N#Cc1ccccc1N=NNc1ccc(-c2nc(N)nc(N)n2)cc1
inactive: [3] 94 % of control | [5] 89 % of control | [7] 89 % of control

O=C(COc1cc(Cl)c(Cl)cc1Cl)Nc1cccc(O)c1
inactive: [9] 101 % of control | [10] 96 % of control | [11] 115 % of control

CC1C2CCC(C2)C1N (stereo unspecified)
inactive: [12] 96 % of control | [13] 94 % of control | [14] 104 % of control | dose: 50.0 mg/kg/injection, schedule: Q04DX003 (ip), vehicle: saline 105 % of control | [15] 98 % of control | [3] 112 % of control and 92 % of control and 93 % of control | [5] 93 % of control

CC12CCCCC1CC/C(=C\c1ccc(Cl)cc1)C2=O (stereo unspecified)
inactive: [16] 114 % of control | [17] 95 % of control | [18] 92 % of control

O=Cc1[nH]c(=S)[nH]c(=O)c1Cc1cccc(Cl)c1
inactive: [2] 100 % of control | dose: 100.0 mg/kg/injection, schedule: Q04DX003 (ip), vehicle: saline with Tween-80 94 % of control | [4] 100 % of control | dose: 200.0 mg/kg/injection, schedule: Q04DX003 (ip), vehicle: saline with Tween-80 94 % of control | [6] 100 % of control | dose: 400.0 mg/kg/injection, schedule: Q04DX003 (ip), vehicle: saline with Tween-80 90 % of control

O=C(c1ccccc1)C1C(=O)N(c2ccccc2)C(=O)N1c1ccccc1 (stereo unspecified)
inactive: [16] 90 % of control | [17] 96 % of control | [18] 96 % of control

COCCCNP(=O)(OC)OC
inactive: [19] 98 % of control | dose: 100.0 mg/kg/injection, schedule: Q04DX003 (ip), vehicle: acetone 98 % of control | dose: 200.0 mg/kg/injection, schedule: Q01DX001 (ip), vehicle: acetone 112 % of control | dose: 200.0 mg/kg/injection, schedule: Q04DX003 (ip), vehicle: acetone 100 % of control | dose: 400.0 mg/kg/injection, schedule: Q01DX001 (ip), vehicle: acetone 105 % of control | dose: 400.0 mg/kg/injection, schedule: Q04DX003 (ip), vehicle: acetone 95 % of control

O=c1c2ncn(C3OC(CO)C(O)C3O)c2nc2n1N=CC(O)N2 (stereo unspecified)
inactive: dose: 100.0 mg/kg/injection, schedule: Q01DX005 (ip), vehicle: saline 120 % of control | dose: 200.0 mg/kg/injection, schedule: Q01DX005 (ip), vehicle: saline 120 % of control

CCN(CC)c1ccc(-c2cc(NS(=O)(=O)c3ccccc3)ccc2NS(=O)(=O)c2ccccc2)cc1
inactive: [20] 95 % of control

O=C(CN(CCO)CCO)c1ccc([N+](=O)[O-])cc1
inactive: [8] 101 % of control

FC(F)(F)c1ccc2c(c1)N(CCCN1CCN(CCN3CCOCC3)CC1)c1ccccc1S2
inactive: dose: 0.78 mg/kg/injection, schedule: Q01DX009 (ip), vehicle: saline 100 % of control | dose: 1.56 mg/kg/injection, schedule: Q01DX009 (ip), vehicle: saline 106 % of control | dose: 3.12 mg/kg/injection, schedule: Q01DX009 (ip), vehicle: saline 95 % of control | [1] 108 % of control | [13] 116 % of control

COc1ccc(NC(=O)OCCN(CCOC(=O)Nc2ccc(OC)cc2)c2cccc(C)c2)cc1
inactive: [16] 100 % of control | [17] 90 % of control | [18] 90 % of control

CN(C)P(N)(N)=O
inactive: [15] 101 % of control | [21] 97 % of control | dose: 200.0 mg/kg/injection, schedule: Q01DX009 (ip), vehicle: saline 97 % of control | [22] 101 % of control | dose: 400.0 mg/kg/injection, schedule: Q01DX009 (ip), vehicle: saline 103 % of control | [23] 100 % of control

O=C1Nc2ccc3c4c(ccc1c24)CC3
inactive: dose: 50.0 mg/kg/injection, schedule: Q01DX001 (ip), vehicle: saline 104 % of control | [16] 95 % of control | [17] 98 % of control | [18] 98 % of control

O=C(O)COc1ccc(Cl)cc1CC(Cl)CCl (stereo unspecified)
inactive: dose: 25.0 mg/kg/injection, schedule: Q01DX009 (ip), vehicle: Klucel (hydroxypropylcellulose) (HPC) 97 % of control | dose: 50.0 mg/kg/injection, schedule: Q01DX009 (ip), vehicle: Klucel (hydroxypropylcellulose) (HPC) 119 % of control | [9] 97 % of control and 100 % of control

NC(=O)C[CH2][Sn]([c]1ccccc1)([c]1ccccc1)[c]1ccccc1
inactive: dose: 50.0 mg/kg/injection, schedule: Q01DX009 (ip), vehicle: saline with Tween-80 101 % of control | [2] 112 % of control

O=C1CCC(=O)N1CC(O)COc1ccccc1 (stereo unspecified)
inactive: [2] 101 % of control | [21] 93 % of control | [4] 101 % of control | [22] 97 % of control | [6] 110 % of control | [23] 106 % of control

COC(=O)CCCCCCCCCC(=O)OC
inactive: [20] 100 % of control | [9] 97 % of control | dose: 200.0 mg/kg/injection, schedule: Q01DX001 (ip), vehicle: Klucel (hydroxypropylcellulose) (HPC) 101 % of control | [10] 96 % of control | dose: 400.0 mg/kg/injection, schedule: Q01DX001 (ip), vehicle: Klucel (hydroxypropylcellulose) (HPC) 95 % of control | [11] 94 % of control

COc1cc2c(cc1OC)C(CCN1C(=O)c3ccccc3C1=O)=NCC2
inactive: [12] 97 % of control | [14] 101 % of control | [3] 97 % of control

O=C(O)C1C2CCC1C(O)C2 (stereo unspecified)
inactive: dose: 100.0 mg/kg/injection, schedule: Q01DX001 (ip), vehicle: saline with Tween-80 107 % of control | dose: 200.0 mg/kg/injection, schedule: Q01DX001 (ip), vehicle: saline with Tween-80 94 % of control | dose: 400.0 mg/kg/injection, schedule: Q01DX001 (ip), vehicle: saline with Tween-80 97 % of control

OC(c1ccc(OCc2ccccc2)cc1)c1nccc2ccccc12 (stereo unspecified)
inactive: [19] 88 % of control

O=C(O)c1ccccc1C(=O)N1CCCC1
inactive: dose: 100.0 mg/kg/injection, schedule: Q04DX002 (ip), vehicle: Klucel (hydroxypropylcellulose) (HPC) 96 % of control | dose: 200.0 mg/kg/injection, schedule: Q04DX002 (ip), vehicle: Klucel (hydroxypropylcellulose) (HPC) 86 % of control | dose: 400.0 mg/kg/injection, schedule: Q04DX002 (ip), vehicle: Klucel (hydroxypropylcellulose) (HPC) 93 % of control

CN(C)CCN(C)C(=O)C(O)(c1ccccc1)c1ccccc1
inactive: dose: 100.0 mg/kg/injection, schedule: Q04DX002 (ip), vehicle: saline with Tween-80 97 % of control | dose: 200.0 mg/kg/injection, schedule: Q04DX002 (ip), vehicle: saline with Tween-80 97 % of control | dose: 400.0 mg/kg/injection, schedule: Q04DX002 (ip), vehicle: saline with Tween-80 97 % of control
